From patent US7795226B2, “Control of radiation injury” (Biotempt B.V., priority 2006, dated 2010)
Where “and” joins values, the source holds several entries; their conditions need not be identical. Identical values can stand only once.

How the values were obtained:
[1] = tested on: LPS (E. coli 026:B6)-induced septic shock in BALB/c mice; experiment: LPS-induced septic shock, single dose of peptide; type: in vivo; conditions: for mice scored D (dead), effect at t = 48 hours / mice with sickness score 1, effect at t = 48 hours / mice with sickness score 2, effect at t = 24 hours / mice with sickness score 3, effect at t = 24 hours / mice with sickness score 4, effect at t = 24 hours / mice with sickness score 5, effect at t = 24 hours / mice with sickness score 4, effect at t = 48 hours / mice with sickness score 5, effect at t = 48 hours / mice scored D (dead), effect at t = 24 hours / mice with sickness score 3, effect at t = 48 hours / mice with sickness score 1, effect at t = 24 hours / mice with sickness score 2, effect at t = 48 hours / mice with sickness score 0, effect at t = 48 hours: single dose 5 mg/kg; for protective effect against LPS-induced sepsis (in words): 5 mg/kg i.p.
Method: Mice used in sepsis or septic shock experiments: Female BALB/c mice of eight to twelve weeks of age were used for all experiments. The animals were bred in our facility under specific pathogen-free conditions according to the protocols described in the […] of European Laboratory Animal Science Associations (FELASA) Working group on Animal Health (Laboratory Animals 28:1-24, 1994).
Injection protocols: For the endotoxin model, BALB/c mice were injected i.p. with 150-300 μg LPS (E. coli 026:B6; Difco Lab., Detroit, Mich., USA). Control groups were treated with PBS i.p. only. To test the effect of peptides, they were dissolved in PBS and injected i.p. at predetermined points in time after LPS treatment.
Mice were scored for sickness severity using the following measurement scheme: • 0 No abnormalities. • 1 Percolated fur, but no detectable behavior differences compared to normal mice. • 2 Percolated fur, huddle reflex, responds to stimuli (such as tap on cage), just as active during handling as healthy mouse. • 3 Slower response to tap on cage, passive or docile when handled, but still curious when alone in a new setting. • 4 Lack of curiosity, little or no response to stimuli, quite immobile. • 5 Labored breathing, inability or slow to self-right after being rolled onto back (moribund, sacrificed). • D Dead.
A first set of septic shock experiments were set up to determine which of the peptides LQG, LQGV (SEQ ID NO:117), VLPALP (SEQ ID NO:140), VLPALPQ (SEQ ID NO:143), MTR, MTRV (SEQ ID NO:119), VVC or QVVC (SEQ ID NO:118) were capable of inhibiting lipopolysaccharide (LPS)-induced septic shock in mice by treating mice with a single dose of peptide at two hours after LPS treatment. Peptides were used at 5 mg/kg bodyweight. BALB/c mice were injected i.p. with escalating doses LPS (E. coli 026:B6; Difco Lab., Detroit, Mich. USA), predetermined to be leading to 80 to 100% mortality in 24 to 72 hours.
To test the effect of peptide early in the development of shock, mice were treated at two hours or at 24 hours after treatment with varying doses of LPS by i.p. injection with test peptide at 5 mg/kg bodyweight.

[2] = tested on: cell-cycle marker pCDG and auxin-responsive marker DR5::GUS; experiment: Arabidopsis thaliana seedling cell-cycle analysis (GUS markers); conditions: for identified as useful peptide for treatment of radiation injury from cell-cycle studies in plants and in vitro proliferation studies: Results from Examples 9 and 10
How it was run: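 Four-day-old Ws-0 seedlings carrying GUS reporters (pCDG, DR5::GUS) were exposed to peptides at 5 mg/ml in PBS pH 8 for four and eight hours. GUS staining with 2 mM X-Gluc for 16 hours; distribution in root, root-hypocotyl transition zone and cotyledons assessed by DIC microscopy after chloral hydrate clearing.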

[3] = tested on: spleen cell suspensions stimulated with anti-CD3 antibody; experiment: anti-CD3 induced proliferation of spleen cells from peptide-treated mice; type: cell-based; conditions: mice treated i.p. 0.5 or 5 mg/kg for one hour; 0, 12, 24 and 48 hours culture
Method: FIG. 4: A test on representative oligopeptides for their effect on proliferation during rapid growth of murine monocytes induced by CD3 when avid cell division occurs. Mice (n=5) were treated i.p. PBS, Nak4 (LQGV (SEQ ID NO:117)), Nak47 (LAGV (SEQ ID NO:121)), Nak46 (AQGV (SEQ ID NO:120)) provided by Ansynth BV, The Netherlands, or Nak46* (AQGV (SEQ ID NO:120) provided by Diosynth BV, The Netherlands). Mice were treated with 0.5 mg/kg of 5 mg/kg peptide for one hour, after which, spleens were isolated and spleen cell suspensions were made. Spleen cell suspensions were pooled per group and cultured in vitro (in three-fold) in the presence of PBS or of anti-CD3 antibody and proliferation was tested at 0, 12, 24 and 48 hours after culture.
To further study anti-cell-cycle activity of various oligopeptides, an in vitro experiment in […] of mice stimulated with anti-CD3 was performed. The aim was to test representative oligopeptides for their effect on proliferation during rapid growth induced by CD3 when avid cell division occurs. Mice (n=5) were treated i.p. PBS, Nak4 (LQGV (SEO ID NO:117)), Nak47 (LAGV (SEQ ID NO:121)), Nak46 (AQGV (SEQ ID NO:120)) provided by Ansynth BV, The Netherlands, or Nak46* (AQGV (SEQ ID NO:120) provided by Diosynth BV, The Netherlands). Mice were treated with 0.5 mg/kg or 5 mg/kg peptide for one hour after which spleens were isolated and spleen cell suspensions were made. Spleen cell suspensions were pooled per group and cultured in vitro (in three-fold) in the presence of PBS or of anti-CD3 antibody and proliferation was tested at 0, 12, 24 and 48 hours after culture.

| Substance | mice scored D (dead), effect at t = 48 hours ([1]; LPS dose 7**) | mice with sickness score 1, effect at t = 48 hours ([1]; LPS dose 7**) | mice with sickness score 2, effect at t = 24 hours ([1]; LPS dose 7**) | mice with sickness score 4, effect at t = 24 hours ([1]; LPS dose 7**) | mice with sickness score 5, effect at t = 24 hours ([1]; LPS dose 7**) | mice scored D (dead), effect at t = 48 hours ([1]; LPS dose 7*) | mice with sickness score 4, effect at t = 24 hours ([1]; LPS dose 7*) | mice with sickness score 5, effect at t = 48 hours ([1]; LPS dose 7*) | mice scored D (dead), effect at t = 48 hours ([1]; LPS dose 10) | mice with sickness score 3, effect at t = 24 hours ([1]; LPS dose 10) | mice with sickness score 4, effect at t = 24 hours ([1]; LPS dose 10) | mice with sickness score 5, effect at t = 48 hours ([1]; LPS dose 10) | mice with sickness score 3, effect at t = 24 hours ([1]; LPS dose 8) | mice with sickness score 3, effect at t = 48 hours ([1]; LPS dose 8) | identified as useful peptide for treatment of radiation injury from cell-cycle studies in plants and in vitro proliferation studies [2] | protective effect against LPS-induced sepsis (in words) [1] | mice with sickness score 1, effect at t = 24 hours ([1]; LPS dose 7**) | mice with sickness score 1, effect at t = 24 hours ([1]; LPS dose 7*) | mice with sickness score 1, effect at t = 48 hours ([1]; LPS dose 7*) | mice with sickness score 2, effect at t = 24 hours ([1]; LPS dose 7*) | also measured |
| --- | --- | --- | --- | --- | --- | --- | --- | --- | --- | --- | --- | --- | --- | --- | --- | --- | --- | --- | --- | --- | --- |
| MTR | 3 | 3 | 1 | 1 | 1 | 1 | 3 | 3 | 3 | 2 | 3 | 1 |  |  |  |  |  |  |  |  | mice with sickness score 3, effect at t = 24 hours ([1]; LPS dose 7**): 3; mice with sickness score 3, effect at t = 24 hours ([1]; LPS dose 7*): 3; mice with sickness score 4, effect at t = 48 hours ([1]; LPS dose 7*): 2; mice scored D (dead), effect at t = 24 hours ([1]; LPS dose 10): 1; mice with sickness score 1, effect at t = 48 hours ([1]; LPS dose 10): 2 |
| LQG | 5 |  |  | 3 | 2 | 4 | 3 | 2 |  | 1 | 2 | 2 | 1 | 1 |  |  |  |  |  |  | mice scored D (dead), effect at t = 24 hours ([1]; LPS dose 7**): 1; mice with sickness score 4, effect at t = 48 hours ([1]; LPS dose 7**): 1; mice with sickness score 5, effect at t = 24 hours ([1]; LPS dose 7*): 3; mice scored D (dead), effect at t = 24 hours ([1]; LPS dose 8): 1; mice scored D (dead), effect at t = 48 hours ([1]; LPS dose 8): 6; mice with sickness score 2, effect at t = 24 hours ([1]; LPS dose 8): 2; mice with sickness score 4, effect at t = 48 hours ([1]; LPS dose 8): 2; mice with sickness score 5, effect at t = 24 hours ([1]; LPS dose 8): 4; mice with sickness score 5, effect at t = 48 hours ([1]; LPS dose 8): 3; mice with sickness score 4, effect at t = 48 hours ([1]; LPS dose 10): 1; mice scored D (dead), effect at t = 48 hours ([1]; LPS dose 10, 5 mg/kg): 4 and 3; mice with sickness score 5, effect at t = 24 hours ([1]; LPS dose 10, 5 mg/kg): 4 and 3 |
| VLPALP (hexamer peptide) |  | 5 | 1 |  |  |  |  |  | 2 |  |  | 1 |  | 1 | useful | marked protective effect | 5 | 4 | 5 | 2 | mice with sickness score 2, effect at t = 48 hours ([1]; LPS dose 7**): 1; mice with sickness score 2, effect at t = 48 hours ([1]; LPS dose 7*): 1; mice with sickness score 0, effect at t = 48 hours ([1]; LPS dose 8): 2; mice with sickness score 1, effect at t = 24 hours ([1]; LPS dose 8, 5 mg/kg): 3 and 2; mice with sickness score 1, effect at t = 48 hours ([1]; LPS dose 8, 5 mg/kg): 3 and 5; mice with sickness score 2, effect at t = 48 hours ([1]; LPS dose 8, 5 mg/kg): 2 and 1; mice scored D (dead), effect at t = 48 hours ([1]; LPS dose 9): 1; mice with sickness score 1, effect at t = 24 hours ([1]; LPS dose 9): 2; mice with sickness score 3, effect at t = 48 hours ([1]; LPS dose 9): 1; mice with sickness score 4, effect at t = 24 hours ([1]; LPS dose 9): 1; mice with sickness score 5, effect at t = 48 hours ([1]; LPS dose 9): 2; mice with sickness score 2, effect at t = 24 hours ([1]; LPS dose 9, 5 mg/kg): 3 and 4; mice with sickness score 2, effect at t = 48 hours ([1]; LPS dose 9, 5 mg/kg): 2 and 1; mice with sickness score 3, effect at t = 24 hours ([1]; LPS dose 9, 5 mg/kg): 1 and 2; mice with sickness score 2, effect at t = 48 hours ([1]; LPS dose 10): 2; mice with sickness score 3, effect at t = 48 hours ([1]; LPS dose 10): 2; mice with sickness score 1, effect at t = 48 hours ([1]; LPS dose 10, 5 mg/kg): 3 and 2; mice with sickness score 2, effect at t = 24 hours ([1]; LPS dose 10, 5 mg/kg): 3 and 4; mice with sickness score 4, effect at t = 24 hours ([1]; LPS dose 10, 5 mg/kg): 3 and 2 |
| LQGV |  | 6 |  |  |  |  |  |  | 1 | 1 | 1 |  | 1 |  | useful | marked protective effect | 6 | 2 | 6 | 4 | effect on cell-cycle marker (pCDG) and auxin-responsive marker (DR5::GUS) (in words) ([2]; seedlings incubated four and eight hours, 5 mg/ml peptide solution): clear effect on the tested markers; proliferation of anti-CD3 stimulated spleen cells (in words) [3]: reduction of proliferation; mice with sickness score 0, effect at t = 48 hours ([1]; LPS dose 8): 4; mice with sickness score 1, effect at t = 24 hours ([1]; LPS dose 8): 3; mice with sickness score 2, effect at t = 48 hours ([1]; LPS dose 8): 1; mice with sickness score 2, effect at t = 24 hours ([1]; LPS dose 8, 5 mg/kg): 5 and 3; mice with sickness score 1, effect at t = 24 hours ([1]; LPS dose 10): 2; mice with sickness score 2, effect at t = 48 hours ([1]; LPS dose 10): 1; mice with sickness score 1, effect at t = 48 hours ([1]; LPS dose 10, 5 mg/kg): 6 and 4 |
